Experiment [1] has as its target T1, Ephrin type-A receptor 3 (Homo sapiens) (UniProt P29320).
T1 sequence (whole entry): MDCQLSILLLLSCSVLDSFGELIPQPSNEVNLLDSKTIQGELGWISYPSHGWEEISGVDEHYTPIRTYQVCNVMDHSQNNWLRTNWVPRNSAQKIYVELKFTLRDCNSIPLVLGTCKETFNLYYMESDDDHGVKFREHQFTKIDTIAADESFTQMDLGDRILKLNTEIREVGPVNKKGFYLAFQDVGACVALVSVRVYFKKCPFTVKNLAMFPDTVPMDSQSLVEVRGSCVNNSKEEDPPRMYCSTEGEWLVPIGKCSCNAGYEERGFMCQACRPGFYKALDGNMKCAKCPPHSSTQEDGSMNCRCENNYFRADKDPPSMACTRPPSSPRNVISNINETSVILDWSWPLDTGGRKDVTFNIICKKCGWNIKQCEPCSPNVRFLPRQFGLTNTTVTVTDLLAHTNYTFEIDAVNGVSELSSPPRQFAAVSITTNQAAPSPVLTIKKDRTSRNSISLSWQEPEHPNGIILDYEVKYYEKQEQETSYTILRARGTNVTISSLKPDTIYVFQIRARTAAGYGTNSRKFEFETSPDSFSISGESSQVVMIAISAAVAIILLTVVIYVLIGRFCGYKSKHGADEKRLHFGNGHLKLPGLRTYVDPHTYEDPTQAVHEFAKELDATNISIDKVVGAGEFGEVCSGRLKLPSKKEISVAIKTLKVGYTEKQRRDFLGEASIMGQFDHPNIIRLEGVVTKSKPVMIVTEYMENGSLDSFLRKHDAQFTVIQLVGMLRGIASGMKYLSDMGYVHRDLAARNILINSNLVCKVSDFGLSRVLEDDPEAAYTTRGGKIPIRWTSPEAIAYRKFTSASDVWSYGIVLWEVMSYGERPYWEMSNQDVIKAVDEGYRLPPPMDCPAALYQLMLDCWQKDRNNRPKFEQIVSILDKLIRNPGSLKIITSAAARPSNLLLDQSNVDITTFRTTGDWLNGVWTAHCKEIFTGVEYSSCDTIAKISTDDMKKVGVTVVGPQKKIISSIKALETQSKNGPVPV
The experiment in a line: Residual activity of EPHA3 at 0.1 uM by microplate scintillation counting.

In experiment [2] the target is Vascular endothelial growth factor receptor 1 (Homo sapiens) (UniProt P17948). In words: Residual activity of VEGFR1 at 0.1 uM by microplate scintillation counting.
Vascular endothelial growth factor receptor 1 (Homo sapiens), sequence (P17948 whole entry): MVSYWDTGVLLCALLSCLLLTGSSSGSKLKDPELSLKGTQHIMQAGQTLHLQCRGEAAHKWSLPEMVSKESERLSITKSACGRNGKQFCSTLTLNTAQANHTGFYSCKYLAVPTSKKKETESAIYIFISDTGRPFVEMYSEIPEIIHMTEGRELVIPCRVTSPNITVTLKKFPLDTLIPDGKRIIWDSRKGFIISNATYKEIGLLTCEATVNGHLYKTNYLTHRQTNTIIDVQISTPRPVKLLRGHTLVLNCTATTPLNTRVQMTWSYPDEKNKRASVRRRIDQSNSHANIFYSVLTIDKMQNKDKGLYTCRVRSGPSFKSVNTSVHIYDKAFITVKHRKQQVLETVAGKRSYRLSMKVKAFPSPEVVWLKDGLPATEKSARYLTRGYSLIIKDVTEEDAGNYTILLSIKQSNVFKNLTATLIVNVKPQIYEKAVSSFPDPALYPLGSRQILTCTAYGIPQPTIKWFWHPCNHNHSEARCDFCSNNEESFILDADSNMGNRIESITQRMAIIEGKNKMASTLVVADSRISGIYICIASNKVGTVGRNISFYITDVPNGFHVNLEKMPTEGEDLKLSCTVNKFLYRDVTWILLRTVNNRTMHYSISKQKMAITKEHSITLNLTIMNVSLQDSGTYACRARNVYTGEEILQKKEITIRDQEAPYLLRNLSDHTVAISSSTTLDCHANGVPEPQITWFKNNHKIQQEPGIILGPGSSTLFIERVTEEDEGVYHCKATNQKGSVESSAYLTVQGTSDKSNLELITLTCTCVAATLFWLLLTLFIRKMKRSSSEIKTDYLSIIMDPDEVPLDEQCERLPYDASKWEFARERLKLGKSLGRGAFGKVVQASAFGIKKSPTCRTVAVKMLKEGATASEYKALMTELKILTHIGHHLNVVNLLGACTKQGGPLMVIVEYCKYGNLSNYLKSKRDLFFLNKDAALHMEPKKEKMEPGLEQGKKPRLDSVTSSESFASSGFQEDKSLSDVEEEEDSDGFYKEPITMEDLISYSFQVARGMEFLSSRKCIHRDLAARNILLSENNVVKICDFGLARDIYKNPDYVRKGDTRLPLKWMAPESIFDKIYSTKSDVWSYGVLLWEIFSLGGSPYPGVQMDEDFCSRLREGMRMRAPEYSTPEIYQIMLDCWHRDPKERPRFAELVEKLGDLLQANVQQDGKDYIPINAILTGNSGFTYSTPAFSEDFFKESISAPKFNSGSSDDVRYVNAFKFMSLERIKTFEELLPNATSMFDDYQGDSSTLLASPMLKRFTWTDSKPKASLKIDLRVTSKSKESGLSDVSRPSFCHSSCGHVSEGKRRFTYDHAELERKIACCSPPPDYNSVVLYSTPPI
Experiment [3] addresses Tyrosine-protein kinase BTK (Homo sapiens) (UniProt Q06187). The experiment in a line: Residual activity of BTK at 1 uM by microplate scintillation counting.
Experiment [4] has as its target Serine/threonine-protein kinase WNK2 (Homo sapiens) (UniProt Q9Y3S1). The experiment in a line: Residual activity of WNK2 at 1 uM by microplate scintillation counting.
The target of experiment [5] is 5'-AMP-activated protein kinase catalytic subunit alpha-1 (Homo sapiens) (UniProt Q13131). In words: Residual activity of AMPK-alpha1 fl at 1 uM by microplate scintillation counting.
5'-AMP-activated protein kinase catalytic subunit alpha-1 (Homo sapiens), sequence (Q13131 whole entry, looked up): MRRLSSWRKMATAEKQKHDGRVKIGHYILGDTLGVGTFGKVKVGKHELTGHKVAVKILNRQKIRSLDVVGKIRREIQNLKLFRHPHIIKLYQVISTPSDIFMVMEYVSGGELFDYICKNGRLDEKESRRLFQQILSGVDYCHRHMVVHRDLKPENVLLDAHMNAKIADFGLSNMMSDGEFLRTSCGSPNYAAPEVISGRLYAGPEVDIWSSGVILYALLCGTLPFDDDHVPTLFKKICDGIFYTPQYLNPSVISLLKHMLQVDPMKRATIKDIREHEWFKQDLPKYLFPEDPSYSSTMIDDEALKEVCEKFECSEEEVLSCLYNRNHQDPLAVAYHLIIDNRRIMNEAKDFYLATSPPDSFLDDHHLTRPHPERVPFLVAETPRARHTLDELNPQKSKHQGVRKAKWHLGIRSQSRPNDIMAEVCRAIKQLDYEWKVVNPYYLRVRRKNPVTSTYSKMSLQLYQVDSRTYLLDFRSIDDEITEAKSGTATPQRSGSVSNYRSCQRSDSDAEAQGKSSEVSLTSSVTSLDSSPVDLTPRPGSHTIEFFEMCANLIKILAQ
Experiment [6] has as its target T2, cGMP-dependent protein kinase 1 (Homo sapiens) (UniProt Q13976).
T2 sequence (whole entry): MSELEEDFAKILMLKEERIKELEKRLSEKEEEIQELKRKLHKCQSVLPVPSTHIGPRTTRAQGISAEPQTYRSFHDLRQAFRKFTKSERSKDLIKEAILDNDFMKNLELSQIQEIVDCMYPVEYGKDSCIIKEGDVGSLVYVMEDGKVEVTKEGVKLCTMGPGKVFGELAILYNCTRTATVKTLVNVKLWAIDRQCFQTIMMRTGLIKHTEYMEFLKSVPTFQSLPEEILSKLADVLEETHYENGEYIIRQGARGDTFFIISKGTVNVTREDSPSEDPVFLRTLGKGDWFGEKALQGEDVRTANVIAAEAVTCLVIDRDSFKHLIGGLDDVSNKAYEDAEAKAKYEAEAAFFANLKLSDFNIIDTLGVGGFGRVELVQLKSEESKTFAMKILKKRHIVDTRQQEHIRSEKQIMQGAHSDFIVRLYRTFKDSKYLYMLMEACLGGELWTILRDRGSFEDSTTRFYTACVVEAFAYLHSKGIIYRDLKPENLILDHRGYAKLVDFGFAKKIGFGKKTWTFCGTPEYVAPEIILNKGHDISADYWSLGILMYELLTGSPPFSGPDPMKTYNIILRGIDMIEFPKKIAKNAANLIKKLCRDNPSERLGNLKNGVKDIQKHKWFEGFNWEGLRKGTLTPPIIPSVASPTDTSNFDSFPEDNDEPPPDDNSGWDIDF
In words: Residual activity of PRKG1 at 1 uM by microplate scintillation counting.

Experiment [7] addresses T3, Tyrosine-protein kinase Tec (Homo sapiens) (UniProt P42680).
T3 sequence (whole entry): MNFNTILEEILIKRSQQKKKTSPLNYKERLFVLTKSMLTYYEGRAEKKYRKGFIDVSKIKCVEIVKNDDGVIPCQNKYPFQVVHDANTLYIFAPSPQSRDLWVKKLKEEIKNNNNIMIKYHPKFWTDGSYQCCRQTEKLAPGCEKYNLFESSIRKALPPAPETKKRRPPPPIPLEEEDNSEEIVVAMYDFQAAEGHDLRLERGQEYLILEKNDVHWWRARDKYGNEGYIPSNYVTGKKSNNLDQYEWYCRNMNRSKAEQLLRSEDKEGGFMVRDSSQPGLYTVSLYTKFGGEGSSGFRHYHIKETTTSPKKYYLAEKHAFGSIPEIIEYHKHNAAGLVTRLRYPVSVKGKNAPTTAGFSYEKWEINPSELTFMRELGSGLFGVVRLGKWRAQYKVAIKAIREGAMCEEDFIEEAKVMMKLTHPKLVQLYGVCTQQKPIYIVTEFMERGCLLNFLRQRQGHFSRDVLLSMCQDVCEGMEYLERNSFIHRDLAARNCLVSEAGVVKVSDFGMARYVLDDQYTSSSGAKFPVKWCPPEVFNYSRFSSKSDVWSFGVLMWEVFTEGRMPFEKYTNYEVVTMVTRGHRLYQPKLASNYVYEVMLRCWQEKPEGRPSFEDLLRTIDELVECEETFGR
In words: Residual activity of TEC at 10 uM by microplate scintillation counting.

The target in experiment [8] is Mitogen-activated protein kinase 14 (Homo sapiens) (UniProt Q16539). The experiment in a line: Residual activity of p38alpha at 0.1 uM by microplate scintillation counting.
Experiment [9] concerns the target SRSF protein kinase 3 (Homo sapiens) (UniProt Q9UPE1). In words: Residual activity of STK23 at 0.1 uM by microplate scintillation counting.

Serine/threonine-protein kinase WNK2 (Homo sapiens), sequence (Q9Y3S1 whole entry): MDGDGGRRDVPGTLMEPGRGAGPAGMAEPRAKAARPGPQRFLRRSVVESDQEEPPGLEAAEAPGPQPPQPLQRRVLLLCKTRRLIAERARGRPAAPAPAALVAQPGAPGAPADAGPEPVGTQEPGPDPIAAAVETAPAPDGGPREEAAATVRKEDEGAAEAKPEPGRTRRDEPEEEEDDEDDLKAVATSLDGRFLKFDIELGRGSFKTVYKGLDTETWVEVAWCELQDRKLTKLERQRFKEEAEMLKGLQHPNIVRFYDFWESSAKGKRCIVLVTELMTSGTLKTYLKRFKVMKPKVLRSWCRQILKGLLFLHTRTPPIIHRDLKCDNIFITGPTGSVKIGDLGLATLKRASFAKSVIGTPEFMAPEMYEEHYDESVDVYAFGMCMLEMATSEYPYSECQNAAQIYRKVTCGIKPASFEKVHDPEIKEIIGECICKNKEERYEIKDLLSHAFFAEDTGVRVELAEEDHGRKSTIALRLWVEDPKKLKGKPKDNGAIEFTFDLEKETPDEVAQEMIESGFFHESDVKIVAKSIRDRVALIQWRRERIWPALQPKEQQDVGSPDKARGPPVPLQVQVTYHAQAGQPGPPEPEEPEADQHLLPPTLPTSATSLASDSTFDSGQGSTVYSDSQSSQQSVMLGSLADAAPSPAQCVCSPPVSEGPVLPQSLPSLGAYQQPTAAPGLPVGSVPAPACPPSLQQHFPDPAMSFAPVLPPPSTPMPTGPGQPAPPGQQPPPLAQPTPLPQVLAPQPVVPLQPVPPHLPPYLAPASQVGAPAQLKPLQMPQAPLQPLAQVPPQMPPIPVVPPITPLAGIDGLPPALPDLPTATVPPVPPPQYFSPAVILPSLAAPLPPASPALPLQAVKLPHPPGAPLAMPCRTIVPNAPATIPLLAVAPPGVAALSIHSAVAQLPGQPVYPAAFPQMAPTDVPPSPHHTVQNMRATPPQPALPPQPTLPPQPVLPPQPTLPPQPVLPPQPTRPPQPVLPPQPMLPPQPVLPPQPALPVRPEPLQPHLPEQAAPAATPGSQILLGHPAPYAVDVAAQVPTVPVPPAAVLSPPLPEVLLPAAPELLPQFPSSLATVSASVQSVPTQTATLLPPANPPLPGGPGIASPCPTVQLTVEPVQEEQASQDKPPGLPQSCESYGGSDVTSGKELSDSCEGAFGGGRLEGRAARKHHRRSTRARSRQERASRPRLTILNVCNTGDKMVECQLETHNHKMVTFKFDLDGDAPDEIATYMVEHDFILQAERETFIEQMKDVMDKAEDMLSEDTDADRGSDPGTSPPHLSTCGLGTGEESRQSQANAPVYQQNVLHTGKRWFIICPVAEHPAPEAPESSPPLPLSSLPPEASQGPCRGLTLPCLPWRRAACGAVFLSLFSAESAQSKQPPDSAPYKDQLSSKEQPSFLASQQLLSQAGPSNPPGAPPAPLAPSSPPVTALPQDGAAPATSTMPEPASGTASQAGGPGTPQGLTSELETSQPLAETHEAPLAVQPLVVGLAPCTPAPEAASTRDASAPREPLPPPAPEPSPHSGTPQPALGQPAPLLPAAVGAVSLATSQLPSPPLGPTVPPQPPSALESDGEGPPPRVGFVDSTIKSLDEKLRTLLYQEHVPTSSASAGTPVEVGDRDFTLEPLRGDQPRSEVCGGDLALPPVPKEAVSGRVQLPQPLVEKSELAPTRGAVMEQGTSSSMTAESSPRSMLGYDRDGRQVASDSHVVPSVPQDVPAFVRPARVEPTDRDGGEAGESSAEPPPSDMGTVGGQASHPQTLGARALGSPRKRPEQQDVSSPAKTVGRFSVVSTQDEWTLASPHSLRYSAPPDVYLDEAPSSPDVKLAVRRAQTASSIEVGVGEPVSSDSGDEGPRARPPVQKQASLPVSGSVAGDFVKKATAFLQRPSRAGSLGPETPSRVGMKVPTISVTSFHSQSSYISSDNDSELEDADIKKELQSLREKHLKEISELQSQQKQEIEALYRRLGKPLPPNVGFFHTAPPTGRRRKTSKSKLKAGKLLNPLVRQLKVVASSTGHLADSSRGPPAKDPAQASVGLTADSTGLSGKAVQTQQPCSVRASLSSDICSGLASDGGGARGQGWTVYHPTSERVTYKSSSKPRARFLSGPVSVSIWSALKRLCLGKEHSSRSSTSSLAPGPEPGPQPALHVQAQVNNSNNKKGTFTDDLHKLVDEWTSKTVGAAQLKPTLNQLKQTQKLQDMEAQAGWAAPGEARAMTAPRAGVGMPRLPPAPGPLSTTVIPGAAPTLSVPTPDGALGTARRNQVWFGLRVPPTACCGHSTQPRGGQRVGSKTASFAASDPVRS
Tyrosine-protein kinase BTK (Homo sapiens), sequence (Q06187 whole entry): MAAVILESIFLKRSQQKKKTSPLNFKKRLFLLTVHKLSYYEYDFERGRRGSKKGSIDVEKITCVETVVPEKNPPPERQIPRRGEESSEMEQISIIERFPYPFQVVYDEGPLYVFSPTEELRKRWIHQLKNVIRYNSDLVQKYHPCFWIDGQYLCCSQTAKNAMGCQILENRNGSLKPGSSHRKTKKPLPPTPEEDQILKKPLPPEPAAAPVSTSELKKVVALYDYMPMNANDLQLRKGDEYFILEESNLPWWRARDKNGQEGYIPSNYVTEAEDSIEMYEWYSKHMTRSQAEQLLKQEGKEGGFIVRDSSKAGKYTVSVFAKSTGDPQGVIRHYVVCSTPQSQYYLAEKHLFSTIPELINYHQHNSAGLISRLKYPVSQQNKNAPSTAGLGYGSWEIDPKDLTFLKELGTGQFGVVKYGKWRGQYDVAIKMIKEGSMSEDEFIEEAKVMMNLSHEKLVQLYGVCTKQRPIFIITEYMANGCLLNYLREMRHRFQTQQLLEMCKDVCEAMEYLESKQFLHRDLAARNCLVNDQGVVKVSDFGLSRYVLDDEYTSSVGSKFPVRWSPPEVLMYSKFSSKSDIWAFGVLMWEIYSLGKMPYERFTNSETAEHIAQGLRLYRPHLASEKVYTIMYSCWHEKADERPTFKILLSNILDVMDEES

As for `COc1cc2c(Oc3ccc(-c4nc5ccccc5s4)cc3)ncnc2cc1OCCCN1CCCC1`, the residual activity in [1] turned out to be 104%; in [2], 96%; in experiment [3], 163%; in experiment [4], 34%; in experiment [5], 91%; in experiment [6], 101%. For the same compound, the residual activity was found to be 45% in [7], 100% in experiment [8] and 80% in experiment [9].

In the case of `COc1cc2c(Oc3ccc(-c4nc5ccccc5s4)cc3F)ncnc2cc1OCCCN1CCN(C)CC1`, the residual activity in experiment [1] was determined as 106%; in [2], 95%; in experiment [3], 114%; in experiment [4], 53%; in experiment [5], 77%; in [6], 97%. In addition, the residual activity was determined as 25% in experiment [7], 101% in experiment [8] and 88% in [9].

As for `COc1cc2c(Oc3ccc(-c4nc5ccccc5s4)cc3)ncnc2cc1OCCCN1CCN(C)CC1`, the residual activity stood at 92% in experiment [1]; 93% in [2]; 124% in experiment [3]; 25% in experiment [4]; 76% in [5]; 87% in experiment [6]. Further, the residual activity amounted to 61% in experiment [7], 93% in experiment [8] and 88% in experiment [9].

The values above are taken from ChEMBL document CHEMBL1152560, “Substituted 2-arylbenzothiazoles as kinase inhibitors: hit-to-lead optimization” (Bioorg Med Chem, 2009).
